Laboratory results reported in patent US8772243B2, “Methods for predicting the response to anti-cancer treatment with an agonist of TLR7 or an agonist of TLR8” (Inserm (Institut National de la Sante et de la Recherche …, priority 2008, dated 2014).

What was measured:
A549 cells [1] = experiment: Tumor cell proliferation assay (Alamar blue reduction); format: cell-based, human; conditions: 10 μg/ml, ten days
Description: (§1) FIG. 4 TLR7 and 8 induce survival of lung tumor cells. (A) A549 cells were unstimulated, stimulated with loxoribine (10 μg/ml), Poly U (10 μg/ml), or Gardiquimod(10μg/ml) and incubated with Alamar blue for 10 days. Reduction of Alamar blue was then determined by spectrophotometry at 570 and 600 nm. The percentage of reduced Alamar blue was calculated as described by the manufacturer. A549 cells were unstimulated or stimulated with loxoribine, Poly U, Gardiquimod, etoposide, or cycloheximide for 24 h. (B) The percentage of dead cells was determined by Trypan blue exclusion. (C) The DNA content was measured by IP staining after RNAse A treatment. The percentages indicate the proportion of subdiploid (G0/G1) and […]. Data represent mean values±SD from 3 independent experiments (*p<0.05; ** p<0.01, Student test). (D) A549 cells were cultured for 6 h in the presence of loxoribine, Poly U, or Gardiquimod, and the expression of Bcl-2 was assayed using Taq Man Low Density Array technology. The ΔCT values for Bcl-2 expression were calculated by subtraction of the CT value obtained for the 18S housekeeping gene. The ΔΔCT values were obtained by subtraction of ΔCT values for unstimulated cells from those obtained for stimulated cells. The fold increase (arbitrary unit) was obtained by 2^−ΔΔCT.
Human lung cancer cell lines were seeded in 96-well plates (800 cells per well) and left unstimulated or were stimulated with loxoribine, Poly U, or Gardiquimod. The proliferation assay was performed with Alamar blue (AbD Serotec, Cergy Pontoise, France) according to the manufacturer's instructions. Briefly, cells were seeded and stimulated with TLR ligands in 100 μl of medium, and 10 μl of Alamar Blue was added. The optical density in each well was determined at 540 nm and 570 nm after 10 days of culture, and the percentage of reduced Alamar blue was determined. The percentage of reduced Alamar blue in unstimulated cells was determined as 100%, and the percentages of the stimulated cells were determined relative to this value.

A549 cells [2] = experiment: Cell cycle analysis (propidium iodide staining); format: cell-based, human; conditions: PI staining
Description: as §1
A549 cells were cultured in the presence of loxoribine, Poly U, Gardiquimod, etoposide, or cycloheximide. After 48 h, the cells were harvested, washed in cold PBS, and fixed with 2 ml of 70% cold ethanol in PBS for 2 h at 4° C. After centrifugation, the supernatant was removed and the pellet was rinsed with 0.5% PBS Tween. It was then incubated with […] of RNAse A and 50 μg of propidium iodide in PBS. Propidium iodide staining was determined with a FACScalibur cytometer.

[3] = tested on: Bcl-2 expression in A549 cells; experiment: Bcl-2 expression, Taq Man Low Density Array, A549; format: cell-based, human; conditions: 6 h, RT-PCR
Description: as §1, with “The fold increase (arbitrary unit) was obtained by 2^−ΔΔCT.” left out
Total RNA was extracted from A549 or SK-MES cells stimulated with loxoribine, Poly U, or Gardiquimod for 6 h or from purified human lung cancer cells using the RNeasy isolation-kit RNA (Qiagen, Courtaboeuf, France). The integrity and the quantity of the RNA were evaluated with a bioanalyzer-2100 (Agilent Technologies). All samples were assessed for gene expression analysis using the Taq Man Low-Density Array angiogenesis and immune panel (Applied Biosystem). […] Quantitative real-time TaqMan-PCR was performed using Low-Density-Arrays and the 7900 robotic real-time PCR-system (Applied-Biosystems). […] Data were analyzed using the SDS Software v2.2 (Applied-Biosystems). The ΔCT values were calculated for each gene by subtraction of the CT value of the 18S housekeeping gene from the CT of the gene of interest. […]

[4] = tested on: Bcl-2 expression in SCC SK-MES cells; experiment: Bcl-2 expression, SK-MES; format: cell-based, human; conditions: data not shown
Description: Total RNA was extracted from A549 or SK-MES cells stimulated with loxoribine, Poly U, or Gardiquimod for 6 h or from purified human lung cancer cells using the RNeasy isolation-kit RNA (Qiagen, Courtaboeuf, France). The integrity and the quantity of the RNA were evaluated with a bioanalyzer-2100 (Agilent Technologies). All samples were assessed for gene expression analysis using the Taq Man Low-Density Array angiogenesis and immune panel (Applied Biosystem). The RT-PCR experiments were carried-out according to the manufacturer's instructions (Applied-Biosystems). Quantitative real-time TaqMan-PCR was performed using Low-Density-Arrays and the 7900 robotic real-time PCR-system (Applied-Biosystems). The 18S primers and probes were used as internal controls. Data were analyzed using the SDS Software v2.2 (Applied-Biosystems). The ΔCT values were calculated for each gene by subtraction of the CT value of the 18S housekeeping gene from the CT of the gene of interest. The ΔΔCT values were obtained by subtraction of the ΔCT values for unstimulated cells from the […]. The fold increase (arbitrary unit) was obtained by 2^−ΔΔCT.

A549 and SK-MES cells = experiment: Chemoresistance assay (Trypan blue and Alamar blue); format: cell-based, human; conditions: Alamar blue reduction
Description: FIG. 5 TLR7 and 8 induce chemoresistance of lung tumor cells. A549 (A-C) or SK-MES cells (D-F) were cultured with or without loxoribine or Poly U for 48 h, and then left untreated or were treated with cycloheximide, cisplatine, carboplatine, doxorubicine, or Navelbine. After 36 h, the percentage of dead cells was determined by Trypan blue exclusion (A, D) and cell viability was analyzed by the reduction of Alamar blue (B, C, E and F). Data represent mean values±SD from 3 independent experiments (*p<0.05; **p<0.01, ***p<0.001, Student test).
A549 and SK-MES cells were seeded in 96-well plates (1000 cells per well) and left unstimulated or were stimulated with loxoribine, Poly U, or Gardiquimod for 48 h. Cisplatine, carboplatine, doxorubicine, Navelbine, or cycloheximide was then added for an additional 36 h. The optical density in each well was determined 24 h after the addition of Alamar blue at 540 nm and 570 nm. Alternatively, viable and dead cells were counted using Trypan blue.

A549 cells [5] = experiment: A549 xenograft in NOD/SCID mice; format: in vivo
Description: Mice were anesthetized by intra-peritoneal injection of a solution containing 3.2 mg of ketamine (Virbac) and 0.16 mg of xylasine (Rompum 2%, Bayer Healthcare) in 80 μl of PBS (Gibco). Five days prior to experimentation, A549 cells were pre-stimulated with 100 μM Loxoribine (Invivogen) or left unstimulated. For each condition 5×10^6 cells were diluted in 250 μl PBS and injected subcutaneously to 5 mice per group and were re-stimulated either with 50 μl PBS or with 100 nmol of Loxoribine diluted in 50 μl PBS. Stimulating injections into the tumor site were carried out on the day the cells were injected and then on days 3, 6 and 9. The mice then received either 120 μA PBS, or a chemotherapy of cisplatine (2 mg/kg/injection diluted in 120 μl PBS) on days 18, 20 and 22, both intra-peritoneal. The volume of the tumor was determined by measuring the length (Lg), the width (Wi) of the tumor and by calculating (Lg*(Wi*Wi)/2.

Molecule | increase in reduction of Alamar blue versus unstimulated cells (A549 cells [1]) [%] | proportion of cells in G0/G1 or G2/M phases versus unstimulated cells (A549 cells [2]) | Bcl-2 expression compared to untreated cells [3] | increase in Bcl-2 expression [4] [fold] | cell viability after chemotherapy when stimulated prior to induction of apoptosis (A549 and SK-MES cells) | tumor volume by week 14 (A549 cells [5]; A549 cells pre-stimulated 100 μM, 100 nmol into tumor site days 0, 3, 6, 9, control group 4 cm^3) [cm^3] | metastases at autopsy (A549 cells [5]; Loxoribine mice versus control mice) | time of 50% mortality (A549 cells [5]; Loxoribine mice, NS mice towards week 17) [week] | tumor volume seven weeks after injection of tumor cells (A549 cells [5]; PBS-treated Loxoribine pre-stimulated group, PBS-treated NS group 1.9 cm^3) [cm^3] | tumor volume ratio, Loxoribine pre-stimulated versus NS group (A549 cells [5]; PBS-treated, seven weeks after injection) [times]
C=CCn1c(=O)n([C@@H]2O[C@H](CO)[C@@H](O)[C@H]2O)c2nc(N)[nH]c(=O)c21 [loxoribine, 7-allyl-7,8-dihydro-8-oxo-guanosine] | 20 | did not observe any significant differences | increased expression of Bcl-2 | 100 | significantly higher viability | 8 | more ganglionic and pulmonary metastases than control mice | ~15 | 5.3 | 2.5
Poly U | 20 | did not observe any significant differences | increased expression of Bcl-2 | 100 | significantly higher viability | – | – | – | – | –
